{
  "source": "patent US12077503B2",
  "about": "“Substituted cyclic amides and their use as herbicides” (FMC CORPORATION, priority 2015, dated 2024)",
  "format_in_all_cases": "in vivo",
  "key": {"[1]": {"system": "corn (Zea mays)", "assay": "Test A postemergence", "method_in_brief": "(§1)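 Visual injury, scored on a 0–100 scale relative to untreated controls, was recorded about 10 d after application. Treatments were a preemergence soil spray over planted seeds or a postemergence spray on plants at the one- to two-leaf stage, 2 to 10 cm tall, all in loam soil–sand blend in the greenhouse.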"}, "[2]": {"system": "blackgrass (Alopecurus myosuroides)", "assay": "Test A postemergence", "method_in_brief": "as §1"}, "[3]": {"system": "barnyardgrass (Echinochloa crus-galli)", "assay": "Test A postemergence", "method_in_brief": "as §1"}, "[4]": {"system": "pigweed (Amaranthus retroflexus)", "assay": "Test A postemergence", "details": "postemergence, 0 to 100 scale (0 no effect, 100 complete control)", "method_in_brief": "as §1"}, "[5]": {"system": "wheat (Triticum aestivum)", "assay": "Test A postemergence", "details": "postemergence, 0 to 100 scale (0 no effect, 100 complete control)", "method_in_brief": "as §1"}, "[6]": {"system": "giant foxtail (Setaria faberii)", "assay": "Test A postemergence", "details": "postemergence, 0 to 100 scale (0 no effect, 100 complete control)", "method_in_brief": "as §1"}, "[7]": {"system": "ryegrass, Italian (Italian ryegrass, Lolium multiflorum)", "assay": "Test A postemergence", "details": "postemergence, 0 to 100 scale (0 no effect, 100 complete control)", "method_in_brief": "as §1"}, "[8]": {"system": "Galium (catchweed bedstraw, Galium aparine)", "assay": "Test A postemergence", "details": "postemergence, 0 to 100 scale (0 no effect, 100 complete control)", "method_in_brief": "as §1"}, "[9]": {"system": "Kochia (Kochia scoparia)", "assay": "Test A postemergence", "details": "postemergence, 0 to 100 scale (0 no effect, 100 complete control)", "method_in_brief": "as §1"}, "[10]": {"system": "ragweed (common ragweed, Ambrosia elatior)", "assay": "Test A postemergence", "details": "postemergence, 0 to 100 scale (0 no effect, 100 complete control)", "method_in_brief": "as §1"}, "[11]": {"system": "barnyardgrass (Echinochloa crus-galli)", "assay": "Test C flooded paddy test", "details": "Flood, 0 is no effect, 100 is complete control", "method_in_brief": "(§2)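 Scores express visual response relative to untreated controls, 0 meaning no effect and 100 complete control, assessed 13 to 15 d after treatment in the greenhouse. Compound went into water flooded 3 cm above soil around 2-leaf plants.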"}, "[12]": {"system": "sedge, umbrella (small-flower umbrella sedge, Cyperus difformis)", "assay": "Test C flooded paddy test", "details": "Flood, 0 is no effect, 100 is complete control", "method_in_brief": "as §2"}, "[13]": {"system": "ducksalad (Heteranthera limosa)", "assay": "Test C flooded paddy test", "details": "Flood, 0 is no effect, 100 is complete control", "method_in_brief": "as §2"}, "[14]": {"system": "rice (Oryza sativa)", "assay": "Test C flooded paddy test", "details": "Flood, 0 is no effect, 100 is complete control", "method_in_brief": "as §2"}, "[15]": {"system": "barnyardgrass (Echinochloa crus-galli)", "assay": "Test A preemergence", "method_in_brief": "as §1"}, "[16]": {"system": "pigweed (Amaranthus retroflexus)", "assay": "Test A preemergence"}, "[17]": {"system": "giant foxtail (Setaria faberii)", "assay": "Test A preemergence", "method_in_brief": "as §1"}, "[18]": {"system": "ryegrass, Italian (Italian ryegrass, Lolium multiflorum)", "assay": "Test A preemergence", "method_in_brief": "as §1"}, "[19]": {"system": "Kochia (Kochia scoparia)", "assay": "Test A preemergence", "method_in_brief": "as §1"}, "[20]": {"system": "ragweed (common ragweed, Ambrosia elatior)", "assay": "Test A preemergence", "method_in_brief": "as §1"}, "[21]": {"system": "barnyardgrass (Echinochloa crus-galli)", "assay": "Test B flooded paddy test", "details": "Flood, 250 g ai/ha; 0 to 100 scale where 0 is no effect and 100 is complete control; 13 to 15 d", "method_in_brief": "(§3)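 Visual ratings (0 none to 100 complete control) are relative to untreated plants, taken 13–15 d after treatment in a greenhouse. Test material went straight into floodwater standing 3 cm above the soil, kept constant, on plants at the 2-leaf stage.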"}, "[22]": {"system": "sedge, umbrella (small-flower umbrella sedge, Cyperus difformis)", "assay": "Test B flooded paddy test", "details": "Flood, 250 g ai/ha; 0 to 100 scale where 0 is no effect and 100 is complete control; 13 to 15 d", "method_in_brief": "as §3"}, "[23]": {"system": "rice (Oryra sativa)", "assay": "Test B flooded paddy test", "details": "Flood, 250 g ai/ha; 0 to 100 scale where 0 is no effect and 100 is complete control; 13 to 15 d", "method_in_brief": "as §3"}, "[24]": {"system": "ducksalad (Heteranthera limosa)", "assay": "Test B flooded paddy test", "details": "Flood, 250 g ai/ha; 0 to 100 scale where 0 is no effect and 100 is complete control; 13 to 15 d", "method_in_brief": "as §3"}, "[25]": {"details": "125 g ai/ha, postemergence, visual rating after approx. 10 d, 0 to 100 scale (0 no effect, 100 complete control)"}, "[26]": {"details": "Postemergence, 500 g ai/ha, 0 to 100 scale where 0 is no effect and 100 is complete control"}, "[27]": {"details": "125 g ai/ha, visual rating after approx. 10 d"}, "[28]": {"details": "500 g ai/ha, visual injury, approx. 10 d"}, "[29]": {"details": "125 g ai/ha, Preemergence, visual injury after approximately 10 d, 0 to 100 scale where 0 is no effect and 100 is complete control"}, "[30]": {"details": "500 g ai/ha, preemergence, 0 to 100 scale, 0 = no effect, 100 = complete control"}},
  "data": [
    {"smiles": "CN1CC(c2cccc(F)c2)C(C(=O)Nc2ccc(F)cc2F)C1=O", "note": "(stereo not shown) [Compound 633]", "values": [
      {"measurement": "Plant response rating, Corn", "setting": "[1]; [25]", "result": 0},
      {"measurement": "Plant response rating, Corn", "setting": "[1]; [26]", "result": 60},
      {"measurement": "Plant response rating, Blackgrass", "setting": "[2]; [25]", "result": 20},
      {"measurement": "Plant response rating, Blackgrass", "setting": "[2]; [26]", "result": 50},
      {"measurement": "Plant response rating, Barnyardgrass", "setting": "[3]; [25]", "result": 90},
      {"measurement": "Plant response rating, Barnyardgrass", "setting": "[3]; [26]", "result": 90},
      {"measurement": "Plant response rating, Pigweed", "setting": "[4]; [27]", "result": 0},
      {"measurement": "Plant response rating, Pigweed", "setting": "[4]; [28]", "result": 0},
      {"measurement": "Plant response rating, Wheat", "setting": "[5]; [27]", "result": 0},
      {"measurement": "Plant response rating, Wheat", "setting": "[5]; [28]", "result": 40},
      {"measurement": "Plant response rating, Foxtail, Giant", "setting": "[6]; [27]", "result": 90},
      {"measurement": "Plant response rating, Foxtail, Giant", "setting": "[6]; [28]", "result": 90},
      {"measurement": "Plant response rating, Ryegrass, Italian", "setting": "[7]; [27]", "result": 0},
      {"measurement": "Plant response rating, Ryegrass, Italian", "setting": "[7]; [28]", "result": 50},
      {"measurement": "Plant response rating, Galium", "setting": "[8]; [27]", "result": 0},
      {"measurement": "Plant response rating, Galium", "setting": "[8]; [28]", "result": 50},
      {"measurement": "Plant response rating, Kochia", "setting": "[9]; [27]", "result": 40},
      {"measurement": "Plant response rating, Kochia", "setting": "[9]; [28]", "result": 60},
      {"measurement": "Plant response rating, Ragweed", "setting": "[10]; [27]", "result": 0},
      {"measurement": "Plant response rating, Ragweed", "setting": "[10]; [28]", "result": 0},
      {"measurement": "Plant response rating (scale of 0 to 100), Barnyardgrass", "setting": "[11]; 31 g ai/ha", "result": 10},
      {"measurement": "Plant response rating (scale of 0 to 100), Barnyardgrass", "setting": "[11]; 62 g ai/ha", "result": 40},
      {"measurement": "Plant response rating (scale of 0 to 100), Barnyardgrass", "setting": "[11]; 125 g ai/ha", "result": 55},
      {"measurement": "Plant response rating (scale of 0 to 100), Barnyardgrass", "setting": "[11]; 250 g ai/ha", "result": 70},
      {"measurement": "Plant response rating (scale of 0 to 100), Sedge, Umbrella", "setting": "[12]; 31 g ai/ha", "result": 0},
      {"measurement": "Plant response rating (scale of 0 to 100), Sedge, Umbrella", "setting": "[12]; 62 g ai/ha", "result": 0},
      {"measurement": "Plant response rating (scale of 0 to 100), Sedge, Umbrella", "setting": "[12]; 125 g ai/ha", "result": 0},
      {"measurement": "Plant response rating (scale of 0 to 100), Sedge, Umbrella", "setting": "[12]; 250 g ai/ha", "result": 0},
      {"measurement": "Plant response rating (scale of 0 to 100), Ducksalad", "setting": "[13]; 31 g ai/ha", "result": 0},
      {"measurement": "Plant response rating (scale of 0 to 100), Ducksalad", "setting": "[13]; 62 g ai/ha", "result": 60},
      {"measurement": "Plant response rating (scale of 0 to 100), Ducksalad", "setting": "[13]; 125 g ai/ha", "result": 75},
      {"measurement": "Plant response rating (scale of 0 to 100), Ducksalad", "setting": "[13]; 250 g ai/ha", "result": 100},
      {"measurement": "Plant response rating (scale of 0 to 100), Rice", "setting": "[14]; 31 g ai/ha", "result": 0},
      {"measurement": "Plant response rating (scale of 0 to 100), Rice", "setting": "[14]; 62 g ai/ha", "result": 0},
      {"measurement": "Plant response rating (scale of 0 to 100), Rice", "setting": "[14]; 125 g ai/ha", "result": 0},
      {"measurement": "Plant response rating (scale of 0 to 100), Rice", "setting": "[14]; 250 g ai/ha", "result": 10},
      {"measurement": "Plant response rating, Barnyardgrass", "setting": "[15]; [29]", "result": 90},
      {"measurement": "Plant response rating, Barnyardgrass", "setting": "[15]; [30]", "result": 90},
      {"measurement": "Plant response rating, Pigweed", "setting": "[16]; [29]", "result": 0},
      {"measurement": "Plant response rating, Pigweed", "setting": "[16]; [30]", "result": 50},
      {"measurement": "Plant response rating, Foxtail, Giant", "setting": "[17]; [29]", "result": 90},
      {"measurement": "Plant response rating, Foxtail, Giant", "setting": "[17]; [30]", "result": 90},
      {"measurement": "Plant response rating, Ryegrass, Italian", "setting": "[18]; [29]", "result": 30},
      {"measurement": "Plant response rating, Ryegrass, Italian", "setting": "[18]; [30]", "result": 60},
      {"measurement": "Plant response rating, Kochia", "setting": "[19]; [29]", "result": 30},
      {"measurement": "Plant response rating, Kochia", "setting": "[19]; [30]", "result": 50},
      {"measurement": "Plant response rating, Ragweed", "setting": "[20]; [29]", "result": 0},
      {"measurement": "Plant response rating, Ragweed", "setting": "[20]; [30]", "result": 50},
      {"measurement": "Plant response rating, Barnyardgrass", "setting": "[21]", "result": 90},
      {"measurement": "Plant response rating, Sedge, Umbrella", "setting": "[22]", "result": 0},
      {"measurement": "Plant response rating, Rice", "setting": "[23]", "result": 20},
      {"measurement": "Plant response rating, Ducksalad", "setting": "[24]", "result": 100}
    ]}
  ]
}
